According to ChEMBL document CHEMBL1155993, “5-(2-Pyrimidinyl)-imidazo[1,2-a]pyridines are antibacterial agents targeting the ATPase domains of DNA gyrase and topoisomerase IV” (Bioorg Med Chem Lett, 2009):
Converted amounts (≈) assume the structure as drawn.

Key:
[1] = biological target: DNA gyrase subunit B (Streptococcus pneumoniae serotype 4 (strain ATCC BAA-334 / TIGR4), UniProt P0A4L9); assay: Inhibition of Streptococcus pneumoniae SP-3 gyrB by enzyme coupled phosphate assay
[2] = biological target: T1, ParE (Streptococcus pneumoniae, UniProt Q7X1P7); assay: Inhibition of Streptococcus pneumoniae SP-3 parE after 30 mins
T1 sequence (Q7X1P7 whole entry): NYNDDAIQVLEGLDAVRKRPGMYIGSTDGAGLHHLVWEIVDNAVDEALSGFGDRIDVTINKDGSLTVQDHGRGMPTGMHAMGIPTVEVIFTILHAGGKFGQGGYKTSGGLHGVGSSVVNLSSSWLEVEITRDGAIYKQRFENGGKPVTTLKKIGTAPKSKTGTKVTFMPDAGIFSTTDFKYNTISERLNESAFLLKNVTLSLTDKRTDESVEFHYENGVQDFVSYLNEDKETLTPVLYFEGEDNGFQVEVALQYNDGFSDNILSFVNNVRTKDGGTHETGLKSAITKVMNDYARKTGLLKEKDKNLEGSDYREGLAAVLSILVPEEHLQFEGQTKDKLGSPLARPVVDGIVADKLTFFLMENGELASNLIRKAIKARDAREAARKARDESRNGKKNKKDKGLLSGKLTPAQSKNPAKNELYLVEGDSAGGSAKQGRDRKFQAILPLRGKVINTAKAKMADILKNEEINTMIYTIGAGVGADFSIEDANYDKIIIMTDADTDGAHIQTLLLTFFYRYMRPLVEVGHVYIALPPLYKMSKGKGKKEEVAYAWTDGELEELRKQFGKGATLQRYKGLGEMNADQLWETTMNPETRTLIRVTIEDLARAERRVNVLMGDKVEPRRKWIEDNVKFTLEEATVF

[3] = system: Staphylococcus aureus; assay: Antibacterial activity against Staphylococcus aureus UC76 by NCCLS method; format: functional, organism-based; conditions: read-out: MIC
[4] = system: Streptococcus pyogenes; assay: Antibacterial activity against Streptococcus pyogenes SP1-1 by NCCLS method; format: functional
[5] = system: Streptococcus pneumoniae; assay: Antibacterial activity against Streptococcus pneumoniae SP-3 by NCCLS method; format: functional
[6] = system: Streptococcus pneumoniae; assay: Antibacterial activity against fluoroquinolone resistant Streptococcus pneumoniae SP-3765 by NCCLS method; format: functional
[7] = system: Staphylococcus aureus; assay: Antibacterial activity against methicillin resistant Staphylococcus aureus SA-1417 by NCCLS method; format: functional
[8] = system: Streptococcus pyogenes; assay: Antibacterial activity against Streptococcus pyogenes SP1-1 infected in po dosed mouse sepsis model; format: functional; conditions: SP1-1, po, read-out: PD50
[9] = system: Streptococcus pneumoniae; assay: Antibacterial activity against Streptococcus pneumoniae SV-1 infected in po dosed mouse lung; format: functional; conditions: SV-1, po, read-out: PD50
[10] = Bioavailability in rat; format: ADME, organism-based; conditions: in vivo
[11] = Clearance in rat; format: ADME, organism-based; conditions: in vivo
[12] = Volume of distribution in rat; format: ADME, organism-based; conditions: in vivo

Chain of DNA gyrase subunit B (P0A4L9 whole entry): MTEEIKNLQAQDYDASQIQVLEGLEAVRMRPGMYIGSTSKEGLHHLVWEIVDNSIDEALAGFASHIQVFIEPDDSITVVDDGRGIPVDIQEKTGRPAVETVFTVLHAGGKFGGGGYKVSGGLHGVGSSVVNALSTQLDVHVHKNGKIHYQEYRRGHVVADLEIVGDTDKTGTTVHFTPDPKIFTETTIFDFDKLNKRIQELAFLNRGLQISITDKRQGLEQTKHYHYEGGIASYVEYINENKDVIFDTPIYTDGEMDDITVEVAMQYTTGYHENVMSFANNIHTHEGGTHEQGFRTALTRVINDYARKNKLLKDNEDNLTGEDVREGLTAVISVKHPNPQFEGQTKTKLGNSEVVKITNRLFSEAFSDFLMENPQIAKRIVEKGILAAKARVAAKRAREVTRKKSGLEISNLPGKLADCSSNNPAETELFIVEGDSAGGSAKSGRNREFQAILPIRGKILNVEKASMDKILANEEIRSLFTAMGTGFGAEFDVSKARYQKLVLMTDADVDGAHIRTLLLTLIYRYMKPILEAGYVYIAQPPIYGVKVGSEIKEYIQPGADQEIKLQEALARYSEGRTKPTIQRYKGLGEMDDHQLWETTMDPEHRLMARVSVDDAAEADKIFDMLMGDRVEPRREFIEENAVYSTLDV

SMILES | IC50 [1] | IC50 [2] | MIC [3] | MIC [4] | MIC [5] | MIC [6] | MIC [7] | ED50 [8] | ED50 [9] | bioavailability [10] | clearance [11] | Vd [12]
CNC(=O)Nc1cn2c(-c3ncc(C)cn3)cc(-c3cccnc3)cc2n1 | 92 nM | 629 nM | 4 µg/mL (≈ 11.1 µM) | 2 µg/mL (≈ 5.56 µM) | 1 µg/mL (≈ 2.78 µM) | 0.25 µg/mL (≈ 0.696 µM) | – | – | – | – | – | –
CCOC(=O)Nc1cn2c(-c3nccc(C)n3)cc(-c3cnc(N(C)C)nc3)cc2n1 | 1380 nM | 6220 nM | 64 µg/mL (≈ 153 µM) | 0.25 µg/mL (≈ 0.597 µM) | 0.5 µg/mL (≈ 1.19 µM) | 0.125 µg/mL (≈ 0.299 µM) | – | – | – | – | – | –
CCNC(=O)Nc1cn2c(-c3ncc(C)cn3)cc(-c3cccnc3)cc2n1 | 53 nM | 250 nM | 0.5 µg/mL (≈ 1.34 µM) | 0.5 µg/mL (≈ 1.34 µM) | 0.125 µg/mL (≈ 0.335 µM) | 0.125 µg/mL (≈ 0.335 µM) | 0.5 µg/mL (≈ 1.34 µM) | 24 mg/kg | 21 mg/kg | 99% | 18 mL/min/kg | 1.3 L/kg
CCNC(=O)Nc1cn2c(-c3nccc(C)n3)cc(-c3cnc(N(C)C)nc3)cc2n1 | 113 nM | 424 nM | 0.5 µg/mL (≈ 1.2 µM) | 0.25 µg/mL (≈ 0.599 µM) | 0.25 µg/mL (≈ 0.599 µM) | 0.125 µg/mL (≈ 0.299 µM) | – | – | – | – | – | –
Cc1cnc(-c2cc(-c3cccnc3)cc3nc(NC(=O)N(C)C(F)(F)F)cn23)nc1 | 368 nM | 504 nM | 8 µg/mL (≈ 18.7 µM) | 16 µg/mL (≈ 37.4 µM) | 0.25 µg/mL (≈ 0.585 µM) | 0.125 µg/mL (≈ 0.292 µM) | 4 µg/mL (≈ 9.36 µM) | – | – | – | – | –
CCNC(=O)Nc1cn2c(-c3ncc(CC)cn3)cc(-c3cccnc3)cc2n1 | 353 nM | 265 nM | 0.25 µg/mL (≈ 0.645 µM) | 0.125 µg/mL (≈ 0.323 µM) | 0.06 µg/mL (≈ 0.155 µM) | 0.06 µg/mL (≈ 0.155 µM) | 1 µg/mL (≈ 2.58 µM) | – | – | – | – | –
CCCCNC(=O)Nc1cn2c(-c3ncc(C)cn3)cc(-c3cccnc3)cc2n1 | 261 nM | 4750 nM | 8 µg/mL (≈ 19.9 µM) | 2 µg/mL (≈ 4.98 µM) | 2 µg/mL (≈ 4.98 µM) | 0.125 µg/mL (≈ 0.311 µM) | – | – | – | – | – | –
CCCn1ccc(-c2cc(-c3ncc(C)cn3)n3cc(NC(=O)NCC)nc3c2)cc1=O | 97 nM | 1020 nM | 0.125 µg/mL (≈ 0.29 µM) | 0.25 µg/mL (≈ 0.579 µM) | 0.06 µg/mL (≈ 0.139 µM) | 0.06 µg/mL (≈ 0.139 µM) | 0.25 µg/mL (≈ 0.579 µM) | – | – | – | – | –
CCNC(=O)Nc1cn2c(-c3nc(C)cc(C)n3)cc(-c3cccnc3)cc2n1 | 198 nM | 541 nM | 1 µg/mL (≈ 2.58 µM) | 1 µg/mL (≈ 2.58 µM) | 0.5 µg/mL (≈ 1.29 µM) | 0.5 µg/mL (≈ 1.29 µM) | 4 µg/mL (≈ 10.3 µM) | – | – | – | – | –
CCNC(=O)Nc1cn2c(-c3ncccn3)cc(-c3cncnc3)cc2n1 | 75 nM | 280 nM | 0.5 µg/mL (≈ 1.39 µM) | 0.5 µg/mL (≈ 1.39 µM) | 0.125 µg/mL (≈ 0.347 µM) | 0.125 µg/mL (≈ 0.347 µM) | – | – | – | – | – | –
CCNC(=O)Nc1cn2c(-c3ncc(C)cn3)cc(-c3cncnc3)cc2n1 | 36 nM | 258 nM | 0.25 µg/mL (≈ 0.668 µM) | 0.5 µg/mL (≈ 1.34 µM) | 0.25 µg/mL (≈ 0.668 µM) | 0.06 µg/mL (≈ 0.16 µM) | 1 µg/mL (≈ 2.67 µM) | – | – | – | – | –
CCNC(=O)Nc1cn2c(-c3nc(C)cc(C(F)(F)F)n3)cc(-c3cccnc3)cc2n1 | 216 nM | 546 nM | 0.5 µg/mL (≈ 1.13 µM) | 0.5 µg/mL (≈ 1.13 µM) | 0.25 µg/mL (≈ 0.566 µM) | 0.125 µg/mL (≈ 0.283 µM) | 1 µg/mL (≈ 2.27 µM) | – | – | – | – | –
CCNC(=O)Nc1cn2c(-c3nc(C(F)(F)F)cc(C(F)(F)F)n3)cc(-c3cccnc3)cc2n1 | 242 nM | 745 nM | 2 µg/mL (≈ 4.04 µM) | 1 µg/mL (≈ 2.02 µM) | 0.25 µg/mL (≈ 0.505 µM) | 0.125 µg/mL (≈ 0.252 µM) | 4 µg/mL (≈ 8.07 µM) | – | – | – | – | –
CCNC(=O)Nc1cn2c(-c3ncc(F)cn3)cc(-c3cccnc3)cc2n1 | 56 nM | 364 nM | 1 µg/mL (≈ 2.65 µM) | 0.5 µg/mL (≈ 1.32 µM) | 0.125 µg/mL (≈ 0.331 µM) | 0.125 µg/mL (≈ 0.331 µM) | – | – | – | – | – | –
CCNC(=O)Nc1cn2c(-c3ncc(C)cn3)cc(-c3ccn(CCOC)c(=O)c3)cc2n1 | 401 nM | 1640 nM | 0.06 µg/mL (≈ 0.134 µM) | 0.06 µg/mL (≈ 0.134 µM) | 0.06 µg/mL (≈ 0.134 µM) | 0.125 µg/mL (≈ 0.279 µM) | 0.25 µg/mL (≈ 0.559 µM) | – | – | – | – | –
CCNC(=O)Nc1cn2c(-c3ncc(C)cn3)cc(-c3ccn(CC(=O)O)c(=O)c3)cc2n1 | 98 nM | 2140 nM | 64 µg/mL (≈ 143 µM) | 64 µg/mL (≈ 143 µM) | 64 µg/mL (≈ 143 µM) | 64 µg/mL (≈ 143 µM) | 32 µg/mL (≈ 71.5 µM) | – | – | – | – | –
CCNC(=O)Nc1cn2c(-c3ncc(C)cn3)cc(-c3cnc(OC)nc3)cc2n1 | 132 nM | 3640 nM | 16 µg/mL (≈ 39.6 µM) | 32 µg/mL (≈ 79.1 µM) | 16 µg/mL (≈ 39.6 µM) | 16 µg/mL (≈ 39.6 µM) | > 64 µg/mL | – | – | – | – | –
CCNC(=O)Nc1cn2c(-c3nccc(C(=O)OC)n3)cc(-c3cccnc3)cc2n1 | 52 nM | 911 nM | 8 µg/mL (≈ 19.2 µM) | 32 µg/mL (≈ 76.7 µM) | 16 µg/mL (≈ 38.3 µM) | 16 µg/mL (≈ 38.3 µM) | 8 µg/mL (≈ 19.2 µM) | – | – | – | – | –
